According to US12221419B2, “Abietanes and methods of making and using the same” (Florida State University Research Foundation, Incorporated., priority 2022, dated 2025):

How the values were obtained:
glioblastoma cells = assay: activity in glioblastoma cell culture (3D 'tumor' cell growth, FIG. 6); assay type: cell-based; conditions: 3D 'tumor' cells, comparator alendronate
Source text: With entry to fully synthetic abietanes in hand, we explored the activity of taxodione (FL-1) and several synthetic analogs (FL-2 and FL-3) in glioblastoma cell culture (FIG. 6). […] Nevertheless, it is clear that a synthetic entry to bioactive molecules that inhibit glioblastoma cell growth has been established. This is a particularly important application because glioblastoma is an invasive brain cancer with a 5-year mean survival rate of only 5.5%. There are few effective treatments beyond surgery and ionizing radiation. Thus, new therapy modalities are urgently needed.

[1] = molecular target: T1, farnesyl diphosphate synthase (Homo sapiens, UniProt P14324); conditions: statement from cited literature (ref. 28); cited from earlier work
T1 sequence (P14324 1-419): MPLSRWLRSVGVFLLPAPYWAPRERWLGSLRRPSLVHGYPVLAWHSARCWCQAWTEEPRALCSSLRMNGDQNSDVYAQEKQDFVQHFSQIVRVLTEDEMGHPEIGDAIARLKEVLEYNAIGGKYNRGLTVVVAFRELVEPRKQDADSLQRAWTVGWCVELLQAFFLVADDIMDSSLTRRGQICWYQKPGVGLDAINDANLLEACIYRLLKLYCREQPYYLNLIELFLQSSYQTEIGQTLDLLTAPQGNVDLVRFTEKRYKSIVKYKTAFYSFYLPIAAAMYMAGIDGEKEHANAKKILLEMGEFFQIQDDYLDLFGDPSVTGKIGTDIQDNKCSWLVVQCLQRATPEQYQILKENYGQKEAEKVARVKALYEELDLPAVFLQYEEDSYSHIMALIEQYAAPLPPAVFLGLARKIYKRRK

Which results are given for CC(C)C1=CC2=CC(=O)[C@H]3C(C)(C)CCC[C@]3(C)C2=C(O)C1=O (racemic) [FL-1, (±)-taxodione]?
arresting 3D 'tumor' cell growth / inhibiting glioblastoma cell growth (glioblastoma cells): superior to alendronate; inhibitor of farnesyl diphosphate synthase [1]: inhibitor of farnesyl diphosphate synthase
